pIC50: −log10 of the molar value. In brackets after ≈: the same amount, converted by molar mass. Where two headings read alike, the source gives them in different places.
Legend:
HT29 = assay: CellTiter-Blue cell viability assay, HT29; assay type: cell-based, human; details: 50% cell viability vs untreated, mean of triplicates
Procedure: Cell culture of colorectal carcinoma cell lines was performed as follows. DLD-1, HCT116, and HT-29 cells were purchased from CLS Cell Line Service GmbH (Eppelheim, Germany) and cultured in Dulbecco's Modified Eagle Medium (DMEM) high glucose, GlutaMAX™ Supplement, pyruvate (Thermo Fisher Scientific, Paisley, UK) supplemented with 10% fetal bovine serum (FBS; Thermo Fisher Scientific), 200 U/mL penicillin, and 200 μg/ml streptomycin (Thermo Fisher Scientific), at 37° C. with 5% CO2 in a humidified incubator.
The CellTiter®-Blue Cell Viability assay was acquired from Promega Corporation (Madison, WI, USA). Cell viability assay was performed as follows: DLD-1 (4×10^3/well), HCT116 (4×10^3/well), and HT-29 (7×10^3/well) were incubated with a concentration gradient of compound (Id) ranging from 0.01 to 20 μM, in 96-well plates for 48 h at 37° C. Subsequently, 20 μl CellTiter®-Blue Cell Viability reagent was added to each well and incubated for an additional 2 h for the development of fluorescence. The fluorescence emission was measured at 590 nm using a SpectraMax® i3× Multi-Mode microplate reader (Molecular Devices, LLC, San Jose, CA, USA) and plotted against drug concentrations to determine the mean inhibitory concentration of compound (Id) producing 50% decrease in cell viability (IC50). Experiments were performed in triplicates.

HL60 = assay: CellTiter-Blue cell viability assay, HL60; assay type: cell-based, human; details: 48 h, mean of triplicates
Procedure: Cell culture of leukemia cell lines model was performed as follows. HL60, K562, and NB4 cell lines were purchased from CLS Cell Line Service GmbH (Eppelheim, Germany). MV4-11 cell line was purchased from American Type Culture Collection (ATCC; Virginia, USA). KG1α also referred to as KG1a was a gift from Prof. Ghulam Mufti (King College London, UK). Kasumi-1 cell line was purchased from Nawah Scientific (Cairo, Egypt). All cell lines were cultured in Roswell Park Memorial Institute-1640 (RPMI-1640) culture medium supplemented with 10% fetal bovine serum (FBS) (Thermo Fisher Scientific) and 0.1% ciprofloxacin (10 μg/ml; Cipla Limited; Mumbai, India). Cells were maintained in a humidified incubator at 37° C. with 5% CO2.
Cell viability was determined using the CellTiter-Blue® Cell Viability Assay kit (Promega, Madison, WI, USA). Approximately […] were plated in 96 well plate in the presence of increasing drug concentration in triplicate and incubated for 48 h at 37° C. in a humidified incubator. After the incubation period, 20 μL of the cell titer blue reagent was added to each well and the plate was incubated for additional 2 h for the development of florescence. Florescence was measured at 540Ex/590Em on SpectraMax i3 Multi-Mode Microplate Reader (Molecular Devices, LLC; San Jose, CA, USA). […]

[1] = Maximum kinetic aqueous solubility; assay type: physicochemical; details: 2% DMSO/PBS, pH 7.4, read-out: Max. aq. Sol.
Procedure: Solubility assays were performed using Millipore MultiScreen® HTS-PFC Filter Plates designed for solubility assays (EMD Millipore, Billerica, MA). Assays were run in triplicate. The 96-well plates consist of two chambers separated by a filter. Liquid handling was performed using JANUS® Verispan and MTD workstations (Perkin Elmer, Waltham, MA). 4 μL of compound (Id) solution (10 mM in DMSO) was added to 196 μL of phosphate buffer (45 mM potassium phosphate, 45 mM sodium acetate, 45 mM ethanolamine, pH=7.4) in the top chamber to give a final DMSO concentration of 2% and a theoretical drug concentration of 200 μM. Plates were gently shaken for 90 min and then subjected to vacuum. Insoluble drug was captured on the filter. 160 μL of the filtrate was transferred to 96-well Griener UV Star® analysis plates (Sigma-Aldrich, St. Louis, MO) containing 40 μL of acetonitrile. The test compound concentration in the filtrates was measured by UV absorbance on a SpectraMax® Plus microplate reader (Molecular Devices, Sunnyvale, CA) using Softmax Pro software v.5.4.5. Absorbances at 5 wavelengths (280, 300, 320, 340, and 360 nm) were summed to generate the UV signal. Standard curves were generated by adding 4 μL of five concentrations of test compound in DMSO to 40 μL of acetonitrile in UV Star plates followed by 156 μL of the appropriate solubility medium. Analysis and statistics were performed using GraphPad® Prism v.5.04. Data were reported as the maximum concentration observed in the filtrate.

[2] = Stability in human liver microsomes; assay type: in vitro ADME
Procedure: The clearance of compound (Id) in mouse or human liver microsomes was determined at 37° C. Both mouse and human liver microsomes were obtained from Merck KGaA, (Darmstadt, Germany), Cat. No. M9441 (Mouse liver microsomes) and M0317 (Human liver microsomes). Assays were conducted in triplicate in 96-deep well polypropylene plates. […] At five time points, reaction mixture aliquots were transferred to 96-shallow well stop plates on ice containing acetonitrile with 0.1 μM propafenone. […] Standard curves for test compounds were generated using 5 concentrations in triplicate that were processed as above but with zero incubation time. Stop plates were centrifuged at 2000 g for 10 min and then supernatant aliquots were transferred to a Waters Aquity® UPLC 700 μL 96-well sample plate with cap mat (Waters, Milford, MA). The amount of compound remaining in the supernatant was quantified by LC/MS/MS using a Waters Xevo TQ MS (electrospray positive mode) coupled to a Waters Aquity® UPLC (BEH column, C18). Propafenone was used as the internal standard. GraphPad® Prism v 5.04 was used for nonlinear fitting of time course data to generate t1/2 values.

[3] = human liver microsomes, in presence of NADPH, 37° C.

Compound | pIC50 (HT29; 48 h) | pIC50 (HL60) | solubility kinetic at 90 min [1] [µM] | Mic. Ctrl. Human % @60 min [2] [%] | Stability HLM t1/2 [2, 3] [min] | pIC50 (HT29; Homo sapiens, HT-29, 48 h) | pIC50 (HL60; Homo sapiens, HL-60) | solubility kinetic at 90 min ([1]; phosphate buffer with 2% DMSO, aqueous buffer, kinetic from dmso stock) [µM] | half-life ([2]; human, liver microsomes, human liver microsomes, in presence of NADPH, 37° C., read-out: Stability HLM t1/2) [min] | Mic. Ctrl. Human % @60 min ([2]; without NADPH, percent remaining after 60 min incubation) [%] | Mic. Ctrl. Human % @60 min ([2]; without NADPH, percent remaining after 60 min incubation, listed as compound (Id))
COc1ccc(/C=C2\N=C(C)N(c3ccc(CC(=O)NCc4ccccc4)cc3)C2=O)cc1 [KIM-161, reference compound] | 5.73 | 6.62 | 19.9 (≈ 8.75 µg/mL) | 113 | 22.9 |  |  |  |  |  | 
CC1=N/C(=C\c2ccc(C)o2)C(=O)N1c1ccc(CC(=O)NCc2ccccc2)cc1 [Compound (Id), 2-Methyl-4-(5-methyl-2-furyl)methylene-1-[4-(benzylaminocarbonylmethyl)phenyl]-5-oxo-1H-imidazole] | 5.87 |  | 79.8 (≈ 33 µg/mL) |  | 30.3 | 5.87 | 6.35 | 79.8 (≈ 33 µg/mL) | 30 | 118 | did not change

Reference: patent publication US20250282764A1, “IMIDAZOLE HETEROCYCLE BASED COMPOUNDS AND METHODS OF TREATING CANCER” (King Abdulaziz University, priority 2024, published 2025)
